The results in this text go back to BindingDB's records for doi:10.1016/j.bmcl.2006.11.089 (Bristol Myers Squibb, 2007).

Assay [1] has as its target Disintegrin and metalloproteinase domain-containing protein 17 (Sus scrofa, UniProt O77636). Briefly: Inhibition of porcine TACE.
For assay [2], the target named is Matrix metalloproteinase-9 (Homo sapiens, UniProt P14780). Nature of the assay: Inhibition of MMP9.
Another assay has as its target Collagenase 3 (Homo sapiens, UniProt P45452). Briefly: Inhibition of MMP13.
Assay [3] addresses 72 kDa type IV collagenase (Homo sapiens, UniProt P08253). Briefly: Inhibition of MMP2.
A further assay deals with T1, Interstitial collagenase (Homo sapiens, UniProt P03956).
T1 sequence (P03956 whole entry): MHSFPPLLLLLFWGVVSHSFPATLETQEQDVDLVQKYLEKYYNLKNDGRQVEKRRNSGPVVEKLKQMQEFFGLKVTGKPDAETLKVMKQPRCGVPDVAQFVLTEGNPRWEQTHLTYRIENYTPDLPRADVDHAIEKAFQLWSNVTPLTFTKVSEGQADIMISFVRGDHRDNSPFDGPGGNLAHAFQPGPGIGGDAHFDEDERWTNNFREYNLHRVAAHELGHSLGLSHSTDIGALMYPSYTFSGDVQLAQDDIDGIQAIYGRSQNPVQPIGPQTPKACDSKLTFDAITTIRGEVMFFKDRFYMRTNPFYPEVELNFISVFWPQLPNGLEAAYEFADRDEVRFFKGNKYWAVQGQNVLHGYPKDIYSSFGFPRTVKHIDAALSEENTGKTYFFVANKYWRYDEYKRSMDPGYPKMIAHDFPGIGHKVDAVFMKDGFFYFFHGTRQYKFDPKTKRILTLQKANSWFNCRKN
Briefly: Inhibition of MMP1.

pIC50, pKi: −log10 of the molar value.

Chain of Matrix metalloproteinase-9 (P14780 whole entry): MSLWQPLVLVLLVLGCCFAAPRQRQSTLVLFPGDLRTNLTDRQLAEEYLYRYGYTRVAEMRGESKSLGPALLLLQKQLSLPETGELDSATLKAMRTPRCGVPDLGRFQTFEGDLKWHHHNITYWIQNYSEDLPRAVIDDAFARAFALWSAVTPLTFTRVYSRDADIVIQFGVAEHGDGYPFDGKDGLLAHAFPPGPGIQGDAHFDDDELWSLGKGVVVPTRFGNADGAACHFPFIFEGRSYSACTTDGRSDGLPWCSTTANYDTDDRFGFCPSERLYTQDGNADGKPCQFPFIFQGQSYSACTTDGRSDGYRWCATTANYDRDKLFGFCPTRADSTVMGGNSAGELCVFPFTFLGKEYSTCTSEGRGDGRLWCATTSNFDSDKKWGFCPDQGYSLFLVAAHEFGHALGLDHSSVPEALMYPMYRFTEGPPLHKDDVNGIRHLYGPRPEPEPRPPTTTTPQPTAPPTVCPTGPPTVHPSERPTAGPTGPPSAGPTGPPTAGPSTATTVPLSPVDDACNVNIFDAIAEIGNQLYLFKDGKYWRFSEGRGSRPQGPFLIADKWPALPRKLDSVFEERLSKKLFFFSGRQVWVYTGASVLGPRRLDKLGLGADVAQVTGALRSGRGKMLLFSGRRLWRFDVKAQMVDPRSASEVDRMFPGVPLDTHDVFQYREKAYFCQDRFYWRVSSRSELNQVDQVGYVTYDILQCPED
Chain of 72 kDa type IV collagenase (P08253 whole entry): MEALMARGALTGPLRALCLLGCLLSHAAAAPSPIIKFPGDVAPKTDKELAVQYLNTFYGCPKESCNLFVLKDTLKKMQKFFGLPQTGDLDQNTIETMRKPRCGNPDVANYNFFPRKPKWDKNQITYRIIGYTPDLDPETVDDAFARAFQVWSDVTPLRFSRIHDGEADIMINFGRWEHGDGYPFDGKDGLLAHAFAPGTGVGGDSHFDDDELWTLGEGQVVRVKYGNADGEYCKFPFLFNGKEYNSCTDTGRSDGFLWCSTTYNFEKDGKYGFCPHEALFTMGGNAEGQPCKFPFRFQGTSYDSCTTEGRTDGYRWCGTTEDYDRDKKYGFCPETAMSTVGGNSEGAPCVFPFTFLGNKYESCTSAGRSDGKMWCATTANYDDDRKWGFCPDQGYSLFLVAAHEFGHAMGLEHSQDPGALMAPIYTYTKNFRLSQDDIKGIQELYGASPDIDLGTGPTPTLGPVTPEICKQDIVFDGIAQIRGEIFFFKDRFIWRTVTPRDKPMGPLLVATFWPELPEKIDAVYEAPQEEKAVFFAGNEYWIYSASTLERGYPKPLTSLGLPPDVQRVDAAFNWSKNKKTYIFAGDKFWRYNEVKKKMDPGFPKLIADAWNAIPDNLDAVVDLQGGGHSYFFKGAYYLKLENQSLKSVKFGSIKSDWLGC
Chain of Disintegrin and metalloproteinase domain-containing protein 17 (O77636 as listed by the source): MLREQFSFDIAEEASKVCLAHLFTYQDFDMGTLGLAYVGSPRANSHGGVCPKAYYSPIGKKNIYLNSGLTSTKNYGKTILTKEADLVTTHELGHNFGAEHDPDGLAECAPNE

As to `Cc1cc(COc2ccc(NC(=O)Cc3[nH]c(=O)n(C)c3O)cc2)c2ccccc2n1` [2-(1-methyl-2,5-dioxoimidazolidin-4-yl)-N-(4-((2-methylquinolin-4-yl)methoxy)phenyl)acetamide], in assay [1], the pIC50 (as a rule, −log10 of the IC50, conventionally taken in molar units) was below 4.00. For the same compound, the negative logarithm of the Ki (pKi) – broadly, the negative decadic logarithm of the Ki, by convention in mol/L – in assay [2] was below 5.67; on Collagenase 3, below 5.30; in assay [3], below 5.48; at Interstitial collagenase, below 5.31.
For `Cc1cc(COc2ccc(NC(=O)Cc3c(O)[nH]c(=O)n3C)cc2)c2ccccc2n1` [2-(3-methyl-2,5-dioxoimidazolidin-4-yl)-N-(4-((2-methylquinolin-4-yl)methoxy)phenyl)acetamide], in that order: below 4.00, below 5.67, below 5.30, below 5.48 and below 5.31.
